From patent US20090209581A1, “NITROXIDES FOR USE IN TREATING OR PREVENTING IMMUNOLOGICAL DISEASES” (priority 2005, published 2009)

Key:
[1] = system: glucocorticoid-induced leucine zipper (GILZ); experiment: Gene expression in cardiac tissue of mice after Tempol administration, chip-based microarray; assay type: in vivo
Method: To assess the effects of Tempol on gene expression, Tempol was administered to experimental mice at a dose of 5 mg/g of food from 14 months to 31 months after birth. Mice receiving the same food without the addition of Tempol were used as a negative control. At the age of 31 months, the experimental animals were sacrificed and the hearts were surgically removed. The expression of a broad spectrum of genes in the cardiac tissue was assessed using chip-based microarray technology. Such chips are well known in the art and are widely used to assess gene expression.

[2] = system: collagen type I alpha 1 (COL1A1); experiment: Gene expression in adipose tissue of mice after Tempol administration, Affymetrix MOE430A 2.0 array; assay type: in vivo
Method: (§1) In a further gene expression study, Tempol was administered to experimental mice at a dose of 5 g/kg of diet from 12 months through 15 months. Mice receiving the same diet without the addition of Tempol were used as a negative control. At the age of 15 months, the adipose tissue of the experimental animals was obtained. The expression of a broad spectrum of genes in the adipose tissue was assessed using chip-based microarray technology. Specifically, in this case an Affymetrix MOE430A 2.0 array, containing 12,960 genes, was employed. Such chips are well known in the art and are widely used to assess gene expression.

[3] = system: complement component 6 (C6); experiment: as above; assay type: in vivo
Method: as §1

[4] = system: glucocorticoid-induced leucine zipper; experiment: Protein level in circulating monocytes of patient after Tempol treatment; assay type: in vivo, human
Method: (§2) A 70-kilogram patient diagnosed with an autoimmune disease is administered a dose of 1500 mg of Tempol per day for 180 days. This may be administered in a single dose, or may be administered as a number of smaller doses over a 24-hour period: for example, three 500-mg doses at eight-hour intervals. Following treatment, the protein level of glucocorticoid-induced leucine zipper in circulating monocytes is increased, and the protein levels of complement component 6 in plasma and of collagen type 1 A1 in fibroblasts is reduced.
as §2, with “patient” for “patient diagnosed with an autoimmune disease”, “days prior to receiving an organ transplant.” for “days.”

complement component 6 = experiment: Protein level in plasma of patient after Tempol treatment; assay type: in vivo, human
Method: as §2
as §2, with “patient” for “patient diagnosed with an autoimmune disease”, “days prior to receiving an organ transplant.” for “days.”

collagen type 1 A1 = experiment: Protein level in fibroblasts of patient after Tempol treatment; assay type: in vivo, human
Method: as §2
as §2, with “patient” for “patient diagnosed with an autoimmune disease”, “days prior to receiving an organ transplant.” for “days.”

[5] = 5 g/kg of diet from 12 through 15 months, microarray signal
[6] = Example 1: patient with autoimmune disease, 1500 mg per day for 180 days
[7] = Example 2: 1500 mg per day for 180 days prior to organ transplant

In the case of CC1(C)CC(O)CC(C)(C)N1[O] [Tempol, 4-hydroxy-2,2,6,6-tetramethylpiperidine-1-oxyl], the “GILZ Fold change” value ([1]; TEMPOL-treated vs control mice, upregulated gene) is reported as 2.3, the “GILZ (AA097711) expression, TEMPOL-treated mice tp51” value ([1]; mouse tp51, 5 mg/g of food from 14 to 31 months, microarray signal) is reported as 83 and the “GILZ (AA097711) expression, TEMPOL-treated mice tp52” value ([1]; mouse tp52, 5 mg/g of food from 14 to 31 months, microarray signal) is reported as 33. For the same compound, the “GILZ (AA097711) expression, TEMPOL-treated mice tp53” value ([1]; mouse tp53, 5 mg/g of food from 14 to 31 months, microarray signal) was 4, the “COL1A1 expression, Mean (Tempol-treated mice)” value [2, 5] was 1688 and the “COL1A1 Fold change” value ([2]; Tempol-treated vs control mice) was −1.28. The “C6 expression, Mean (Tempol-treated mice)” value [3, 5] was 337, the “C6 Fold change” value ([3]; Tempol-treated vs control mice) was −1.85 and the C6 expression decrease ([3]; Tempol-treated vs control mice) was “decrease in expression”. For the same compound, the “protein level of glucocorticoid-induced leucine zipper in circulating monocytes” value [4, 6] was “increased”, the “protein level of glucocorticoid-induced leucine zipper in circulating monocytes” value [4, 7] was “increased” and the “protein level of complement component 6 in plasma” value (complement component 6; [6]) was “reduced”. For the same compound, the “protein level of complement component 6 in plasma” value (complement component 6; [7]) was “reduced”, the “protein level of collagen type 1 A1 in fibroblasts” value (collagen type 1 A1; [6]) was “reduced” and the “protein level of collagen type 1 A1 in fibroblasts” value (collagen type 1 A1; [7]) was “reduced”.
